The subject of this assay is E. coli (ATCC 8739). Nature of the assay: Zone of Inhibition (ZOI), sample pellets on agar. The following applies: for diameter of the ZOI: pellets with 20 wt % cellulose binder (Tables 1 and 2).
The mark [1] stands for this setting: E. coli, 24 h incubation at 37° C.

3 substances from patent US20260234351A1, “ANTIMICROBIAL POLYMER FOAMS COMPRISING A SYNERGISTIC BLEND OF COMPONENTS” (Cupron Performance Additives, Inc., priority 2023, published 2026) can be followed below.

Procedure: Zone of Inhibition (ZOI). […] The cultures were streaked on Luria Agar (LB) plates and incubated overnight at 37° C. […] 50 μL of this stock suspension was spread homogeneously on a trypticase soy agar (TSA) plate (diameter 10 cm).

Take Zinc borate: the “diameter of the ZOI” value under setting [1] is “No ZOI”. For the same substance, the “antimicrobial efficacy in the zone of inhibition testing” value (compound alone) is given as “no significant antimicrobial efficacy”. For basic copper(II) carbonate [BCC], the “Zone of Inhibition Diameter (mm) Avg” value (E. coli, 24 h incubation at 37° C., cellulose binder, average of 3 trials) came out at 12 mm. For “molybdenum (VI) oxide [molybdenum oxide]”, the “diameter of the ZOI” value under setting [1] stood at 19 mm.
